# Entries after “also recorded” stand apart in the source; their conditions may differ. Where two headings read alike, the source gives them in different places.
# What was measured:
# [1] = system: carrageenan rat paw edema; test: Carrageenan rat paw edema; format: in vivo; settings: for Antiinflammatory activity % paw edema inhibition: rat, intraperitoneally prior to carrageenan, 3 h
# Experimental: (§1) Antiinflammatory and analgesic activity have been measured according to carrageenan rat paw edema and acetic acid mouse writhing methods.
# Experiments were conducted as described by Al-Swayeh et al., Brit. J. Pharmacol. 129, 343-350 2000). Hind paw volume was determined by plethysmography before and after 3 h after interplantar carrageenan injection (100 microliter, 2% w/v). The compounds were given intraperitoneally […] prior to carrageenan injection. At the end of the experiment animals were killed by cervical dislocation and exsanguination. The Results shown in Table IX are expressed as % of paw edema inhibition, i.e. the paw volume of the controls (vehicle) subtracted of the paw volume of the treated and the obtained difference divided by the paw volume of the controls.
# liver = test: Example F10: liver safety (AST, ALT, glutathione, bilirubin); format: in vivo, rat; settings: rats, 6 hours; for AST %: i.p. (NO-paracetamol 1.4 g/Kg, paracetamol 1.16 g/Kg); for AST % / ALT % / Bilirubin % / Glutathione %: % of vehicle group; for hepatic damage (in words) / ALT % / Bilirubin % / Glutathione %: i.p.; for Glutathione %: liver glutathione
# Experimental: After 6 hours the animals were killed by cervical dislocation, trunk blood collected and plasma analysed for aspartate aminotransferase (AST) and alanine aminotransferase (ALT) activity, liver glutathione and bilirubin concentration.
# [2] = system: human endothelial cells of the umbilical vein; test: Test 2 (CIP): apoptosis (DNA fragmentation) induced by cumene hydroperoxide in endothelial cells; format: cell-based; settings: drug 10^-4 M; CIP 5 mM
# Experimental: Test 2 (CIP): Protection parameter of endothelial cell against the oxidative stress induced by cumene hydroperoxide (CIP).
# Human endothelial cells of the umbilical vein are prepared according to an usual standard procedure. Fresh umbilical veins are filled with a 0.1% by weight collagenase solution and incubated at 37° C. for 5 minutes.
# The cells are collected from the perfusate by centrifugation and harvested in culture flasks T-75, pretreated with human fibronectin. The cells are then harvested in the same medium, further added with 10 ng/ml of bovine hypothalamic growth factor. When the cells of the primary cell culture (i.e. that directly obtained from ex-vivo) form a single layer of confluent cells (about 8,000,000 cells/flask), the culture is stopped and the layers washed and trypsinized. The cellular suspensions are transferred into the wells of a cell culture plate having 24 wells, half of which is then additioned with the same culture medium containing the drug at a 10^−4M concentration, and harvested in a thermostat at 37° C. at a constant moisture. Only the cells coming from said first sub-cultures are used for the experiments with cumene hydroperoxide (CIP).
# Before starting the test, the cellular culture medium is removed and the cellular layers are carefully washed with a physiologic solution at a temperature of 37° C. The wells of the culture plate are then incubated for one hour with CIP at a 5 mM concentration in the culture medium. […] 5 replicates for each sample are carried out.
# Human endothelial cells of the umbilical vein are prepared according to a standard method. Fresh umbilical veins are filled with a collagenase solution 0.1% by weight and incubated at 37° C. for 5 minutes.
# The cells are collected from the perfusate by centrifugation at 800 rpm and harvested in culture flasks T-75, pretreated with human fibronectin. Cells are then harvested in the same medium, added with bovine hypothalamic growth factor (100 ng/ml). When the cells of the primary cell culture (the cells directly removed from ex-vivo umbilical vein) form a single layer of confluent cells (about 8,000,000 cells/flask), harvesting is stopped and the layers are washed and trypsinized. The cellular suspensions are transferred into wells of a culture plate having 24 wells, half of said wells being added with the same culture medium containing the drug at a 10^−4M concentration, and harvested in a thermostat at 37° C. at a constant moisture (90%), CO2=5%. When the drug is not soluble in the culture medium, it is formerly dissolved in a small amount of dimethylsulphoxide. The maximum amount of dimethylsulphoxide which can be added to the culture medium is 0.5%. Only the cells coming from these first subcultures are used for the tests with cumene hydroperoxide (CIP).
# Before starting the test, the cellular culture medium is removed and the cellular layers are carefully washed with a standard physiologic solution buffered with phosphate 0.1 M pH 7.0, at the temperature of 37° C. The content of each well is then incubated for one hour with a CIP suspension in the culture medium at a 5 mM concentration. Evaluation of the cellular damage (apoptosis) is carried out by determining the percent variation of the DNA fragmentation in the cultures containing the drug+CIP with respect to the controls treated with CIP only. […] The fluorescence of each sample was determined on 5 replicates. Statistic evaluation has been made with t Student test (p<0.01).
# [3] = system: acetic acid mouse writhing; test: Acetic acid mouse writhing; format: in vivo
# Experimental: as §1
# Experiments were conducted as described by Moore et al. (Br. J. Pharmacol. 102, 198-202 1990). The compounds were given orally 15 minutes prior to intraperitoneal acetic acid (2% w/v in saline pH 2.7, 10 ml/Kg). Mice were transferred immediately to individual observation cages and the number of abdominal constrictions monitored over the following 30 minutes. At the end of the observation period the animals were killed by cervical dislocation and exsanguination. Results are expressed as the number of abdominal constrictions (writhings) per 30 minutes test period, expressed as percentage to those observed in the control group, and are reported in Table IX.
# [4] = format: biochemical
# Experimental: Test 5 is a […] test wherein 0.1 ml aliquots of 10^−4 M methanolic solutions of the tested products are added to test tubes containing a solution formed by 0.2 ml of 2 mM deoxyribose, 0.4 ml of phosphate buffer pH 7.4 100 mM and 0.1 ml of 1 mM Fe^II(NH4)2(SO4)2 in 2 mM HCl. The test tubes are then maintained at 37° C. for one hour. Then in each test tube 0.5 ml of a 2.8% solution in trichloroacetic acid water and 0.5 ml of an aqueous 0.1 M solution of thiobarbituric acid are added, in the order. A reference blank is formed by adding to a test tube containing only the above described aqueous solution of reactants 0.1 ml of methanol. […] A pink coloration is developed the intensity of which is proportional to the quantity of deoxyribose undergone to radical oxidative degradation. The solutions are cooled at room temperature and their absorbances are read at 532 nm against the blank. The inhibition induced by the precursor of B or B1 or C=-Tc-Y—H in the confront of radical production by Fe^II is determined by means of the following formula: (1−As/Ac)×100 wherein As and Ac are respectively the absorbance values of the solution containing the tested compound+the iron salt and that of the solution containing only the iron salt, the compound meets test 5 when the inhibition percentage of radical production as above defined from the precursor of B is higher than or equal to 50%. […]
# erythrocytes = test: Test 4A: inhibition of erythrocyte haemolysis induced by cumene hydroperoxide; settings: 2 mM, preincubated 30 minutes; cumene hydroperoxide 270 μM; at Tmax
# gastrointestinal mucosa = settings: male, Wistar, rat, in vivo, 6 h
# Experimental: Gastric lesions induced by administration of the compounds of the invention in the confront of the corresponding drug precursor.
# The animals have been sacrificed 6 hours after the administration. The gastrointestinal mucosa has been removed and inspected. The incidence of the gastrointestinal damage has been evaluated as described in experiment F1.
# [5] = system: human endothelial cells of the umbilical vein; test: Experiment F6: apoptosis (DNA fragmentation) induced in endothelial cells by hydrogen peroxide; format: cell-based; settings: Endothelial cell, products 100 mmoles/l, hydrogen peroxide 200 mmoles/l, 18 hours, read-out: Apoptosis % (respect to the controls treated only with CIP)
# Text: It has been Evaluated the Activity of Some of the Compounds Object of the Present Invention and of the Corresponding Precursor Drugs in Inhibiting DNA Degradation (Apoptosis) in Endothelial Cells Exposed to the Action of Hydrogen Peroxide (HP)
# Hydrogen peroxide is a mild oxidant and is considered as an essential mediating agent in pathologies associated with oxidative stress (B. Halliwell, J. Gutteridge “Free Radicals in Biology and Medicine”, page 416, 1993). Therefore the pharmacological activity of compounds to be used under oxidative stress conditions is evaluated through their capability of neutralizing the cytolesive effects of the hydrogen peroxide (B. Halliwell, J. Gutteridge “Free Radicals in Biology and Medicine”, page 416, 1993).
# The method described by Herman et Al. (Herman C., Zeiner M. A., Dimmeler S., Arterioscler. Thromb. Vasc. Biol. 17 (12), 3588-82, 1997).
# Human endothelial cells of the umbilical vein are prepared according to a standard method. Fresh umbilical veins, just removed, are filled with a solution of collagenase at 0.1% and incubated at 37° C. for 5 minutes.
# Subsequently the veins are perfused with medium M 199 (GIBCO, Grand Island, N.Y.) pH 7.4 containing 20% of human serum. The cells are collected from the perfusate by centrifugation at 800 rpm and harvested in culture flasks T-75, pretreated with human fibronectin. […]
SMILES,Antiinflammatory activity % paw edema inhibition [1] [%],AST % (liver) [%],ALT % (liver) [%],Bilirubin % (liver) [%],Glutathione % (liver) [%],"inhibition of apoptosis induced by CIP (in words, p<0.01) [2]",other results
"CC(=O)Nc1ccc(O)cc1 [Paracetamol, paracetamol]",34,330,171,200,52,do not significantly inhibit apoptosis; also recorded: not significantly different with respect to that of the controls,"hepatic damage (in words) (liver): causes hepatic damage; Analgesic activity % writhing inhibition ([3]; mice, orally 15 minutes prior to intraperitoneal acetic acid, 30 minutes): 40%"
OCCOCCO [Diethylenglycol],–,–,–,–,–,–,"% Radical inhibition from Fe^II ([4]; 10^-4 M methanolic solution, 37° C. one hour, absorbance 532 nm): 0%; % Haemolysis inhibition (erythrocytes): 33.4%"
"OCCCCO [1,4-Butandiol]",–,–,–,–,–,–,% Radical inhibition from Fe^II [4]: 0%
"CC(=O)Nc1ccc(OC(=O)CCCO[N+](=O)[O-])cc1 [Example 1, 4-nitroxybutyric acid 4′-acetylamino phenyl ester]",69,160,57,136,49,–,antiinflammatory activity compared with paracetamol (in words) ([1]; carrageenan paw edema): much more active in both tests than paracetamol; hepatic damage (in words) (liver; listed as NO-paracetamol): much lower increases of AST and ALT; also recorded: the bilirubin concentration is lower than that in the control groups; also recorded: able to spare the liver; analgesic activity compared with paracetamol (in words) ([3]; acetic acid writhing): much more active in both tests than paracetamol
"NCCCC(O)(P(=O)(O)O)P(=O)(O)O [Alendronate, sodic alendronate]",–,–,–,–,–,do not significantly inhibit apoptosis,Gastropathy % incidence (gastrointestinal mucosa): 100%; activity at 100000 µM [5]: 18%
